Results reported in US7112715B2, “Transgenic mouse for targeted recombination mediated by modified Cre-ER” (Gie-Cerbm, Centre Europeen de Recherche en Biologie et en …, priority 2000, dated 2006).

What was measured:
[1] = biological target: Cre-ER^T2 (Homo sapiens, UniProt P03372, G400V/L544A/M543A); settings: K5-Cre-ER^T2 mice; OHT dose 0.001 mg; day 2
Protocol: (§1) Immunohistochemistry of the chimeric Cre recombinase on sections of the epidermis of K5-Cre-ER^T2 and K5-Cre-ER^T3 mice treated either with 0.1 mg, 0.01 mg or 0.001 mg of OHT and analyzed two days (D 2) after the start of the treatment (D 0). The red color corresponds to labeling with the anti-Cre antibody directed against the Cre protein, and the Cyan color corresponds to DAPI.
(§2) After fixing in 2% paraformaldehyde, frozen sections of 10 μm are blocked in 5% normal goat serum (Vector Laboratories) incubated with the rabbit polyclonal antibody anti-MK6 (Babco). After washing in PBS/0.1% Tween 20, the sections are incubated with the donkey anti-rabbit IgG antibody conjugated with CY3 (Jackson Immuno Research) and then mounted in the Vectashield medium (Vector Laboratories) containing DAPI (4′,6-diamidino-2-phenylindole dihydrochloride; Boehringer Mannheim) (Brocard et al., 1997). The anti-Cre antibodies are used according to Indra et al. (1999). • 1.6—Immunohistochemistry
(§3) The sensitivity to OHT was tested in a first instance by analyzing the intracellular location of the chimeric proteins.

[2] = biological target: T1, Cre-ER^T3 (Homo sapiens, UniProt P03372, L544A/M543A); settings: K5-Cre-ER^T3 mice; OHT dose 0.001 mg; day 2
Protocol: as §1, §2, §3

[3] = biological target: T1, Cre-ER^T3; settings: 1 and 0.1 mg of OHT; day 15
Protocol: Activity of β-galactosidase on sections of the epidermis of the tail of K5-Cre-ER^T2(tg/0)/Rosa^f1/1 and K5-Cre-ER^T3(tg/0)/Rosa^f1/+ mice treated with 1 mg, 0.1 mg, 0.01 mg and 0.001 mg of QHT. The analyses are carried out on the fifteenth day after the start of the treatment (D0).
as §3

[4] = biological target: mouse ER LBD (mER) G525R (Mus musculus, UniProt P19785, G525R); settings: cited from earlier work
[5] = system: fusion protein between the recombinase Cre and the ligand-binding domain of the mutated human nuclear estrogen receptor; settings: varies between a few percents and 80%; five infections of 8 mg; cited from earlier work
[6] = system: melanocytic growths; test: Melanocytic growths and lymph node melanocytes after DMBA or DMBA/TPA treatment of CT and RXRα^ep−/− mice; format: in vivo, mouse; settings: for mice with enlarged and pigmented subiliac lymph nodes: 30 weeks
Protocol: A. Dorsal view of CT (K14-Cre-ER^T2(0/0)/RXRα^L2/L2) (left) and RXRα^ep−/− (right) mice 25 weeks after DMBA treatment. Arrows point to some or the melanocytic growths. B. Number of melanocytic growths in skin of CT and RXRα^ep−/− mice 30 weeks after DMBA and DMBA/TPA treatments, as indicated. Values are expressed as mean +/−SEM (n=6). *, p<0.05; ***, p<0.001, C. Size distribution of melanocytic growths in CT and RXRα^ep−/− mice. The number of 1–2 and 2–4 mm melanocytic growths was determined on CT and RXRα^ep−/− mice, 30 weeks after DMBA and DMBA/TPA treatments, as indicated. Values are expressed as mean +/−SEM (m=6).
Photograph of subiliac lymph nodes from CT (a and e) and RXRα^ep−/− (b and f) mice taken 30 weeks after DMBA and DMBA/TPA treatment, respectively. Hematoxylin and eosin stained 5 μm paraffin sections of CT (c and g) and RXRα^ep−/− (d and h) mice after DMBA and DMBA/TPA treatments, respectively. Scale bar, 33 μm.
Subiliac lymph nodes were isolated 30 weeks after DMBA application, fixed in 4% paraformaldehyde, photographed and embedded in paraffin. 5 μm-thick sections were stained with hematoxylin and eosin. • 1.8—Assay of blood parameters
(§4) A single dose of 7,12-dimethylbenz(a)anthracene (DMBA) (5 μg in 100 μl acetone) was applied on the dorsal skin of 10–14 week old mice, 7 weeks before or 16 days after the first Tam or oil (vehicle) treatments. 12-0-tetradecanoylphorbol-13-acetate (TPA) (5 μg in 200 μl acetone) was applied twice a week for 25 to 30 weeks, starting one week after DMBA application. CT and RXRα^ep−/− mice were shaved 7 and 2 days before DMBA treatment, and every second week for 30 and 15 weeks, respectively. 8 weeks after DMBA treatment, all-trans retinoic acid (t-RA, 20 nmoles in ethanol) or vehicle was topically applied 15 min before each TPA application. • 1.10—Determination of the number and size of the tumors
(§5) The length of the papillomas and the diameter of the melanocytic were measured with a Vernier calliper on isofluorane anesthesised mice.

[7] = system: skin papilloma formation induced by DMBA/TPA; test: Antitumoral effect of topical retinoic acid on DMBA/TPA-induced skin papilloma; format: in vivo, mouse; settings: for average number of tumors: ~25 weeks of DMBA/TPA treatment
Protocol: as §4, §5

T1 sequence (P03372 with tags, fused parts or gaps M543A/L544A): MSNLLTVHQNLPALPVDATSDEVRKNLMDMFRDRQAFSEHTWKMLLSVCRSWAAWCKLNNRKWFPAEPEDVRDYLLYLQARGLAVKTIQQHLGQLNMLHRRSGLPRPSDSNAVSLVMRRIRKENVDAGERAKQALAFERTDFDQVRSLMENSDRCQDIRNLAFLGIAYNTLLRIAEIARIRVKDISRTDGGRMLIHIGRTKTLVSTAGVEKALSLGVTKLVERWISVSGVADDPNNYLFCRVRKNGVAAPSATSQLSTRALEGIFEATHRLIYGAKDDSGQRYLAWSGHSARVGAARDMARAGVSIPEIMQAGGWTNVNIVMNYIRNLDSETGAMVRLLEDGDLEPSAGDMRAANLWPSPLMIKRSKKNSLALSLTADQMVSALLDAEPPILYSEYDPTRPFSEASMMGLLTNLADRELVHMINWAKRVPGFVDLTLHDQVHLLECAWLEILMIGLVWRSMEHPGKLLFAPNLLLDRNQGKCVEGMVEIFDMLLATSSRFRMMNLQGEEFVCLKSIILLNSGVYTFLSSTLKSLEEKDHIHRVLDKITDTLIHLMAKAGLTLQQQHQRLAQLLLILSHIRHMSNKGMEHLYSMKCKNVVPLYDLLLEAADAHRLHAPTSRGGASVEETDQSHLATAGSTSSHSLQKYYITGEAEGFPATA
Chain of Cre-ER^T2 (P03372 with tags, fused parts or gaps G400V/M543A/L544A): as the sequence (P03372 with tags, fused parts or gaps M543A/L544A) above, with G465V counted along it
Chain of mouse ER LBD (mER) G525R (P19785 whole entry G525R, the tested form may be a part): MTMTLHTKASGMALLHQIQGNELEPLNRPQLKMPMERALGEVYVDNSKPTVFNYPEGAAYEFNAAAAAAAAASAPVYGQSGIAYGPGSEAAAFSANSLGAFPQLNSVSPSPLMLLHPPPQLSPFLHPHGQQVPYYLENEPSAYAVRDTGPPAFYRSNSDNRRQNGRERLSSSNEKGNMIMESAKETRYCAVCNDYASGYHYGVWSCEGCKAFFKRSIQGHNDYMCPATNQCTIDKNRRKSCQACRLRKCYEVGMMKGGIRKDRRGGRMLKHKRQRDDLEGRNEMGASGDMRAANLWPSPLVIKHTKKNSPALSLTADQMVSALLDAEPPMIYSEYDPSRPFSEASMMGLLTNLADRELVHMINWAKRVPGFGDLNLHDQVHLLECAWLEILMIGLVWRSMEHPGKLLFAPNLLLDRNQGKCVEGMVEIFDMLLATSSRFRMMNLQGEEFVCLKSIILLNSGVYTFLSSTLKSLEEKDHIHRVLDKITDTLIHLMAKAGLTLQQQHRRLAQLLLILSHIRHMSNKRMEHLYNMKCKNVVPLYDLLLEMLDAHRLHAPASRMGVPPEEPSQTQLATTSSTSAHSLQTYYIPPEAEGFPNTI

## 4-hydroxytamoxifen [OHT]
[1]
  nuclei labeled with anti-Cre antibodies in the skin: no positive nucleus
[2]
  nuclei strongly labeled with anti-Cre antibodies in the basal layer of the epidermis: about ⅓
[3]
  excision levels, K5-Cre-ER^T3 versus K5-Cre-ER^T2 line: similar
[4]
  effect of the G525R mutation on binding: without adversely affecting the binding
[5]
  efficiency of site-specific recombination in cells expressing the fusion protein: ≤ 80%

## Cc1c2ccccc2c(C)c2c1ccc1ccccc12 [DMBA, 7,12-dimethylbenz(a)anthracene]
[6]; DMBA alone
  induction of melanocytic growths, RXRα^ep−/− versus CT mice: ~7 fold
[6]; DMBA, CT mice
  mice with enlarged and pigmented subiliac lymph nodes: 0/4
[6]; DMBA, RXRα^ep−/− mice
  mice with enlarged and pigmented subiliac lymph nodes: two out of 4
[6]; DMBA, electron microscopy
  melanosomes per melanocyte, RXRα^ep−/− versus CT melanocytes: ~10 fold

## CC1=C(/C=C/C(C)=C/C=C/C(C)=C/C(=O)O)C(C)(C)CCC1 [t-RA, all-trans retinoic acid]
[7]; CT mice
  tumor formation: efficiently inhibited
[7]; CT mice, 25 weeks of RA treatment, from 2–3 mm, in 3 out of 8 papillomas of 6 mice
  size of the papilloma after treatment: 1 mm
[7]; RA treated CT mice
  size of the tumors: below 2 mm
  average number of tumors: 1
[7]; RA treated RXRα^ep−/− mice
  tumors larger than 12 mm: ~11%
  average number of tumors: ~17
[7]; RXRα^ep−/− mice
  change in size of the papilloma: no decrease in size
[7]; after RA treatment
  number and size of melanocytic growths, RXRα^ep−/− compared to CT mice: increased
[7]; topical, female and male wild-type 129Sv
  skin papilloma formation induced by DMBA/TPA: efficiently blocked
